# Experimental data taken from paper PMC6081437, “The potency of the broad spectrum bacteriocin, bactofencin A, against staphylococci is highly dependent on primary structure, N-terminal charge and disulphide formation” (Scientific Reports, 2018).
# Bridge positions count the residues as written; N and C are the ends. Square brackets hold non-standard residues; d marks the D form. Ends that are not written are not given here. Peptide text beside a SMILES is read from it.
# System: S. aureus DPC5246
# Assay type: cell-based, Staphylococcus aureus
# Settings: DPC5246, pH 6.8
# Description: Peptides were resuspended at 1000 µM in 50 mM sodium phosphate buffer pH 6.8 and checked for purity by MALDI-TOF-MS. Peptides were serially diluted 1 in 4 to give a dilution series of 250, 62.50, 15.63, 3.91, 0.98 and 0.24 µM and assayed by the agar well diffusion assay described by Ryan et al.[19]. Briefly, 50 µl aliquots of each peptide concentration were plated on a S. aureus DPC5246 indicator plate and the plate incubated at 37 °C. Peptide activity (Minimum Inhibitory Concentration (MIC)) was taken as the lowest concentration of peptide to give a zone of inhibition. All assays were performed in triplicate. The dilution series values were rounded to the nearest whole number to give 1000, 250, 63, 16, 4, 1 and 0.25 µM and data is colour coded for ease of interpretation.
row,Compound,"Activity (Minimum Inhibitory Concentration, MIC) [µM]"
1,CSCC[C@@H]1NC(=O)CNC(=O)[C@H]([C@@H](C)O)NC(=O)[C@@H]2CCCN2C(=O)[C@H](CCSC)NC(=O)CNC(=O)[C@H](CC(N)=O)NC(=O)[C@H](CC(N)=O)NC(=O)[C@H](C)NC(=O)[C@H](C(C)C)NC(=O)[C@H](CCCNC(=N)N)NC(=O)[C@@H](NC(=O)[C@H](CCCNC(=N)N)NC(=O)[C@H](Cc2c[nH]cn2)NC(=O)[C@H](CCCCN)NC(=O)[C@H](CCCCN)NC(=O)[C@H](CCCNC(=N)N)NC(=O)[C@@H](N)CCCCN)CSSC[C@@H](C(=O)O)NC(=O)[C@H](Cc2c[nH]c3ccccc23)NC(=O)[C@H](CCCNC(=N)N)NC(=O)[C@H](Cc2ccc(O)cc2)NC1=O [Y10A] (H-KRKKHRCRVANNGMPTGMYRWC-OH; disulfide 7-22),4
2,KRKKHRSRVYNNGMPTGMYRWC-OH [C7S],63
3,CSCC[C@@H]1NC(=O)CNC(=O)[C@H](CC(N)=O)NC(=O)[C@H](CC(N)=O)NC(=O)[C@H](Cc2ccc(O)cc2)NC(=O)[C@H](C(C)C)NC(=O)[C@H](CCCNC(=N)N)NC(=O)[C@@H](NC(=O)[C@H](CCCNC(=N)N)NC(=O)[C@H](Cc2c[nH]cn2)NC(=O)[C@H](CCCCN)NC(=O)[C@H](CCCCN)NC(=O)[C@H](CCCNC(=N)N)NC(=O)[C@@H](N)CCCCN)CSSC[C@@H](C(=O)O)NC(=O)[C@H](Cc2c[nH]c3ccccc23)NC(=O)[C@H](CCCNC(=N)N)NC(=O)[C@H](Cc2ccc(O)cc2)NC(=O)[C@H](C)NC(=O)CNC(=O)[C@H]([C@@H](C)O)NC(=O)[C@@H]2CCCN2C1=O [M18A] (H-KRKKHRCRVYNNGMPTGAYRWC-OH; disulfide 7-22),1
4,CSCC[C@@H]1NC(=O)CNC(=O)[C@H]([C@@H](C)O)NC(=O)[C@@H]2CCCN2C(=O)[C@H](CCSC)NC(=O)CNC(=O)[C@H](CC(N)=O)NC(=O)[C@H](CC(N)=O)NC(=O)[C@H](Cc2ccc(O)cc2)NC(=O)[C@H](C(C)C)NC(=O)[C@H](CCCNC(=N)N)NC(=O)[C@@H](NC(=O)[C@H](CCCNC(=N)N)NC(=O)[C@H](Cc2c[nH]cn2)NC(=O)[C@H](CCCCN)NC(=O)[C@H](CCCCN)NC(=O)[C@H](CCCNC(=N)N)NC(=O)[C@H](C)N)CSSC[C@@H](C(=O)O)NC(=O)[C@H](Cc2c[nH]c3ccccc23)NC(=O)[C@H](CCCNC(=N)N)NC(=O)[C@H](Cc2ccc(O)cc2)NC1=O [K1A] (H-ARKKHRCRVYNNGMPTGMYRWC-OH; disulfide 7-22),1
5,CSCC[C@@H]1NC(=O)CNC(=O)[C@H](CC(N)=O)NC(=O)[C@H](CC(N)=O)NC(=O)[C@H](Cc2ccc(O)cc2)NC(=O)[C@H](C(C)C)NC(=O)[C@H](CCCNC(=N)N)NC(=O)[C@@H](NC(=O)[C@H](CCCNC(=N)N)NC(=O)[C@H](Cc2c[nH]cn2)NC(=O)[C@H](CCCCN)NC(=O)[C@H](CCCCN)NC(=O)[C@H](CCCNC(=N)N)NC(=O)[C@@H](N)CCCCN)CSSC[C@@H](C(=O)O)NC(=O)[C@H](Cc2c[nH]c3ccccc23)NC(=O)[C@H](CCCNC(=N)N)NC(=O)[C@H](Cc2ccc(O)cc2)NC(=O)[C@H](CCSC)NC(=O)CNC(=O)[C@H]([C@@H](C)O)NC(=O)[C@H](C)NC1=O [P15A] (H-KRKKHRCRVYNNGMATGMYRWC-OH; disulfide 7-22),1
6,CSCC[C@@H]1NC(=O)CNC(=O)[C@H]([C@@H](C)O)NC(=O)[C@@H]2CCCN2C(=O)[C@H](CCSC)NC(=O)[C@H](C)NC(=O)[C@H](CC(N)=O)NC(=O)[C@H](CC(N)=O)NC(=O)[C@H](Cc2ccc(O)cc2)NC(=O)[C@H](C(C)C)NC(=O)[C@H](CCCNC(=N)N)NC(=O)[C@@H](NC(=O)[C@H](CCCNC(=N)N)NC(=O)[C@H](Cc2c[nH]cn2)NC(=O)[C@H](CCCCN)NC(=O)[C@H](CCCCN)NC(=O)[C@H](CCCNC(=N)N)NC(=O)[C@@H](N)CCCCN)CSSC[C@@H](C(=O)O)NC(=O)[C@H](Cc2c[nH]c3ccccc23)NC(=O)[C@H](CCCNC(=N)N)NC(=O)[C@H](Cc2ccc(O)cc2)NC1=O [G13A] (H-KRKKHRCRVYNNAMPTGMYRWC-OH; disulfide 7-22),16
7,CSCC[C@@H]1NC(=O)CNC(=O)[C@H]([C@@H](C)O)NC(=O)[C@@H]2CCCN2C(=O)[C@H](CCSC)NC(=O)CNC(=O)[C@H](CC(N)=O)NC(=O)[C@H](CC(N)=O)NC(=O)[C@H](Cc2ccc(O)cc2)NC(=O)[C@H](C(C)C)NC(=O)[C@H](CCCNC(=N)N)NC(=O)[C@@H](NC(=O)[C@H](CCCNC(=N)N)NC(=O)[C@H](Cc2c[nH]cn2)NC(=O)[C@H](CCCCN)NC(=O)[C@H](C)NC(=O)[C@H](CCCNC(=N)N)NC(=O)[C@@H](N)CCCCN)CSSC[C@@H](C(=O)O)NC(=O)[C@H](Cc2c[nH]c3ccccc23)NC(=O)[C@H](CCCNC(=N)N)NC(=O)[C@H](Cc2ccc(O)cc2)NC1=O [K3A] (H-KRAKHRCRVYNNGMPTGMYRWC-OH; disulfide 7-22),1
8,KRKKHRSRVYNNGMPTGMYRWS [C7S-C22S],63
9,CSCC[C@@H]1NC(=O)CNC(=O)[C@H]([C@@H](C)O)NC(=O)[C@@H]2CCCN2C(=O)[C@H](CCSC)NC(=O)CNC(=O)[C@H](CC(N)=O)NC(=O)[C@H](CC(N)=O)NC(=O)[C@H](Cc2ccc(O)cc2)NC(=O)[C@H](C(C)C)NC(=O)[C@H](CCCNC(=N)N)NC(=O)[C@@H](NC(=O)[C@H](CCCNC(=N)N)NC(=O)[C@H](Cc2c[nH]cn2)NC(=O)[C@H](CCCCN)NC(=O)[C@H](CCCCN)NC(=O)[C@H](CCCNC(=N)N)NC(=O)[C@@H](N)CCCCN)CSSC[C@@H](C(=O)O)NC(=O)[C@H](Cc2c[nH]c3ccccc23)NC(=O)[C@H](C)NC(=O)[C@H](Cc2ccc(O)cc2)NC1=O [R20A] (H-KRKKHRCRVYNNGMPTGMYAWC-OH; disulfide 7-22),1
10,CSCC[C@@H]1NC(=O)CNC(=O)[C@H]([C@@H](C)O)NC(=O)[C@@H]2CCCN2C(=O)[C@H](CCSC)NC(=O)CNC(=O)[C@H](CC(N)=O)NC(=O)[C@H](CC(N)=O)NC(=O)[C@H](Cc2ccc(O)cc2)NC(=O)[C@H](C(C)C)NC(=O)[C@H](CCCNC(=N)N)NC(=O)[C@@H](NC(=O)[C@@H](N)CCCNC(=N)N)CSSC[C@@H](C(=O)O)NC(=O)[C@H](Cc2c[nH]c3ccccc23)NC(=O)[C@H](CCCNC(=N)N)NC(=O)[C@H](Cc2ccc(O)cc2)NC1=O [R6-C22] (H-RCRVYNNGMPTGMYRWC-OH; disulfide 2-17; N-terminus assumed),63
11,CSCC[C@@H]1NC(=O)CNC(=O)[C@H](CC(N)=O)NC(=O)[C@H](CC(N)=O)NC(=O)[C@H](Cc2ccc(O)cc2)NC(=O)[C@H](C(C)C)NC(=O)[C@H](CCCNC(=N)N)NC(=O)[C@@H](NC(=O)[C@H](CCCNC(=N)N)NC(=O)[C@H](Cc2c[nH]cn2)NC(=O)[C@H](CCCCN)NC(=O)[C@H](CCCCN)NC(=O)[C@H](CCCNC(=N)N)NC(=O)[C@@H](N)CCCCN)CSSC[C@@H](C(=O)O)NC(=O)[C@H](Cc2c[nH]c3ccccc23)NC(=O)[C@H](CCCNC(=N)N)NC(=O)[C@H](Cc2ccc(O)cc2)NC(=O)[C@@H](CCSC)NC(=O)CNC(=O)[C@H]([C@@H](C)O)NC(=O)[C@@H]2CCCN2C1=O [M18Md] (H-KRKKHRCRVYNNGMPTG[dM]YRWC-OH; disulfide 7-22; N-terminus assumed),16
12,CSCC[C@@H]1NC(=O)CNC(=O)[C@H]([C@@H](C)O)NC(=O)[C@@H]2CCCN2C(=O)[C@H](CCSC)NC(=O)CNC(=O)[C@H](CC(N)=O)NC(=O)[C@H](CC(N)=O)NC(=O)[C@H](Cc2ccc(O)cc2)NC(=O)[C@H](C(C)C)NC(=O)[C@H](C)NC(=O)[C@@H](NC(=O)[C@H](CCCNC(=N)N)NC(=O)[C@H](Cc2c[nH]cn2)NC(=O)[C@H](CCCCN)NC(=O)[C@H](CCCCN)NC(=O)[C@H](CCCNC(=N)N)NC(=O)[C@@H](N)CCCCN)CSSC[C@@H](C(=O)O)NC(=O)[C@H](Cc2c[nH]c3ccccc23)NC(=O)[C@H](CCCNC(=N)N)NC(=O)[C@H](Cc2ccc(O)cc2)NC1=O [R8A] (H-KRKKHRCAVYNNGMPTGMYRWC-OH; disulfide 7-22),1
13,CSCC[C@@H]1NC(=O)CNC(=O)[C@H]([C@@H](C)O)NC(=O)[C@@H]2CCCN2C(=O)[C@H](CCSC)NC(=O)CNC(=O)[C@H](CC(N)=O)NC(=O)[C@H](CC(N)=O)NC(=O)[C@H](Cc2ccc(O)cc2)NC(=O)[C@H](C(C)C)NC(=O)[C@H](CCCNC(=N)N)NC(=O)[C@@H](NC(=O)[C@H](CCCNC(=N)N)NC(=O)[C@H](C)NC(=O)[C@H](CCCCN)NC(=O)[C@H](CCCCN)NC(=O)[C@H](CCCNC(=N)N)NC(=O)[C@@H](N)CCCCN)CSSC[C@@H](C(=O)O)NC(=O)[C@H](Cc2c[nH]c3ccccc23)NC(=O)[C@H](CCCNC(=N)N)NC(=O)[C@H](Cc2ccc(O)cc2)NC1=O [H5A] (H-KRKKARCRVYNNGMPTGMYRWC-OH; disulfide 7-22),1
14,KRKKHRCRVYNNGMPTGMYRWA-OH [C22A],63

# Same assay, conditions: S. aureus DPC5246, agar well diffusion MIC
row,Compound,fold reduction in activity compared with bactofencin A (wild type) [fold]
1,KRKKHRSRVYNNGMPTGMYRWC-OH [C7S],63
2,KRKKHRCRVYNNGMPTGMYRWA-OH [C22A],63
